ChEMBL document CHEMBL5247620, “Lupane derivatives containing various aryl substituents in the position 3 have selective cytostatic effect in leukemic cancer cells including resistant phenotypes” (Eur J Med Chem, 2022)
Active and inactive are the calls of the source. The rule behind the calls is not given here.

Experiments:
[1] = Microsomal stability in human liver microsome as compound remaining at 2 uM measured after 15 mins in presence of NADPH by RF-MS analysis; assay type: ADME; conditions: liver microsomes, read-out: Stability
CCRF-CEM [2] = assay: Induction of apoptosis in human CCRF-CEM cells assessed as early apoptotic cells at 1 times IC50 concentration incubated for 24 hrs by annexin V FITC/propidium iodide staining based flow cytometry (reference value: 2.6 %); assay type: functional
CCRF-CEM [3] = assay: Induction of apoptosis in human CCRF-CEM cells assessed as decrease in cell number at 1 times IC50 concentration incubated for 24 to 74 hrs by annexin V FITC/propidium iodide staining based flow cytometry; assay type: functional; conditions: time 24-74 hrs
CEM-DNR = assay: Cytotoxicity against human CEM-DNR cells assessed as inhibition of cell growth incubated for 72 hrs by MTS assay; assay type: functional, cell-based
[4] = Plasma stability in human assessed as compound remaining at 2 uM measured after 60 mins by RF-MS analysis; assay type: ADME, cell-free; conditions: read-out: Stability
[5] = Plasma stability in human assessed as compound remaining at 2 uM measured after 30 mins by RF-MS analysis; assay type: ADME, cell-free; conditions: read-out: Stability
CCRF-CEM [6] = assay: Induction of cell cycle arrest in human CCRF-CEM cells assessed as decrease of cell population at S phase at 5 times IC50 concentration incubated for 24 to 72 hrs by propidium iodide staining based flow cytometry; assay type: functional; conditions: time 24-72 hrs
CCRF-CEM [7] = assay: Induction of cell cycle arrest in human CCRF-CEM cells assessed as accumulation of cells at G1 phase at 1 times IC50 concentration incubated for 24 to 72 hrs by propidium iodide staining based flow cytometry; assay type: functional; conditions: time 24-72 hrs
A549 = assay: Cytotoxicity against human A549 cells assessed as inhibition of cell growth incubated for 72 hrs by MTS assay; assay type: functional, cell-based; conditions: A549, 72 h
CCRF-CEM [8] = assay: Cytotoxicity against human CCRF-CEM cells assessed as inhibition of cell growth incubated for 72 hrs by MTS assay; assay type: functional, cell-based
[9] = Plasma stability in human assessed as compound remaining at 2 uM measured after 15 mins by RF-MS analysis; assay type: ADME, cell-free; conditions: read-out: Stability
[10] = Cytotoxicity against human BJ cells assessed as inhibition of cell growth incubated for 72 hrs by MTS assay; assay type: toxicity, cell-based
[11] = Chemical stability of the compound in PBS buffer assessed as compound remaining at pH 7.4 at 2 uM measured after 30 mins by RF-MS analysis; assay type: physicochemical; conditions: read-out: Stability
CCRF-CEM [12] = assay: Induction of apoptosis in human CCRF-CEM cells assessed as early apoptotic cells at 5 times IC50 concentration incubated for 24 hrs by annexin V FITC/propidium iodide staining based flow cytometry (reference value: 2.6 %); assay type: functional
[13] = Apparent permeability across apical to basolateral side in human Caco-2 cells assessed as drug recovery incubated for 2 hr by high-throughput spectrometric analysis; assay type: ADME, cell-based; conditions: read-out: Drug recovery
CCRF-CEM [14] = assay: Induction of apoptosis in human CCRF-CEM cells assessed as viable cells at 1 times IC50 concentration incubated for 24 hrs by annexin V FITC/propidium iodide staining based flow cytometry (reference value: 96 %); assay type: functional
[15] = Apparent permeability across apical to basolateral side in human Caco-2 cells incubated for 2 hr by high-throughput spectrometric analysis; assay type: ADME, cell-based
[16] = Cytotoxicity against human p53HCT116 cells assessed as inhibition of cell growth incubated for 72 hrs by MTS assay; assay type: functional, cell-based; conditions: p53HCT116, 72 h
[17] = Cytotoxicity against human K562-Tax cells assessed as inhibition of cell growth incubated for 72 hrs by MTS assay; assay type: functional, cell-based
CCRF-CEM [18] = assay: Induction of apoptosis in human CCRF-CEM cells assessed as late apoptotic cells at 1 times IC50 concentration incubated for 24 hrs by annexin V FITC/propidium iodide staining based flow cytometry (reference value: 1.4 %); assay type: functional
[19] = Chemical stability of the compound in PBS buffer assessed as compound remaining at pH 7.4 at 2 uM measured after 60 mins by RF-MS analysis; assay type: physicochemical; conditions: read-out: Stability
[20] = Chemical stability of the compound in PBS buffer assessed as compound remaining at pH 7.4 at 2 uM measured after 120 mins by RF-MS analysis; assay type: physicochemical; conditions: read-out: Stability
[21] = Apparent permeability across apical to basolateral side in dog MDCK-MDR1 cells incubated for 1 hr by high-throughput spectrometric analysis; assay type: ADME, cell-based, Canis lupus familiaris
[22] = Apparent permeability across apical to basolateral side in dog MDCK-MDR1 cells assessed as drug recovery incubated for 1 hr by high-throughput spectrometric analysis; assay type: ADME, cell-based, Canis lupus familiaris; conditions: read-out: Drug recovery
CCRF-CEM [23] = assay: Induction of apoptosis in human CCRF-CEM cells assessed as viable cells at 5 times IC50 concentration incubated for 24 hrs by annexin V FITC/propidium iodide staining based flow cytometry (reference value: 96 %); assay type: functional
CCRF-CEM [24] = assay: Induction of cell cycle arrest in human CCRF-CEM cells assessed as accumulation of cells at G1 phase at 5 times IC50 concentration incubated for 24 to 72 hrs by propidium iodide staining based flow cytometry; assay type: functional; conditions: time 24-72 hrs
CCRF-CEM [25] = assay: Induction of apoptosis in human CCRF-CEM cells assessed as effect on total Rb protein level at 1 times IC50 concentration incubated for 24 hrs by western blot assay; assay type: functional, cell-based
CCRF-CEM [26] = assay: Induction of apoptosis in human CCRF-CEM cells assessed as effect on total Rb protein level at 5 times IC50 concentration incubated for 24 hrs by western blot assay; assay type: functional, cell-based
K562 = assay: Cytotoxicity against human K562 cells assessed as inhibition of cell growth incubated for 72 hrs by MTS assay; assay type: functional, cell-based; conditions: K562, 72 h
[27] = Chemical stability of the compound in PBS buffer assessed as compound remaining at pH 7.4 at 2 uM measured after 15 mins by RF-MS analysis; assay type: physicochemical; conditions: read-out: Stability
CCRF-CEM [28] = assay: Induction of cell cycle arrest in human CCRF-CEM cells assessed as decrease of cell population at S phase at 1 times IC50 concentration incubated for 24 to 72 hrs by propidium iodide staining based flow cytometry; assay type: functional; conditions: time 24-72 hrs
[29] = Microsomal stability in human liver microsome as compound remaining at 2 uM measured after 60 mins in presence of NADPH by RF-MS analysis; assay type: ADME; conditions: liver microsomes, read-out: Stability
[30] = Plasma protein binding in human assessed as fraction bound at 10 uM incubated for 4 hrs by rapid equilibrium dialysis based RF-MS analysis; assay type: ADME, cell-free; conditions: read-out: PPB (converted)
[31] = Microsomal stability in human liver microsome as compound remaining at 2 uM measured after 30 mins in presence of NADPH by RF-MS analysis; assay type: ADME; conditions: liver microsomes, read-out: Stability
U2OS = assay: Cytotoxicity against human U2OS cells assessed as inhibition of cell growth incubated for 72 hrs by MTS assay; assay type: functional, cell-based
[32] = Efflux ratio of apparent permeability from basolateral to apical side over apical to basolateral side in dog MDCK-MDR1 cells incubated for 1 hr by high-throughput spectrometric analysis; assay type: ADME, cell-based, Canis lupus familiaris
CCRF-CEM [33] = assay: Induction of apoptosis in human CCRF-CEM cells assessed as late apoptotic cells at 5 times IC50 concentration incubated for 24 hrs by annexin V FITC/propidium iodide staining based flow cytometry (reference value: 1.4 %); assay type: functional
HCT-116 = assay: Cytotoxicity against human HCT-116 cells assessed as inhibition of cell growth incubated for 72 hrs by MTS assay; assay type: functional, cell-based; conditions: HCT-116, 72 h
[34] = Efflux ratio of apparent permeability from basolateral to apical side over apical to basolateral side in human Caco-2 cells incubated for 2 hr by high-throughput spectrometric analysis; assay type: ADME, cell-based
[35] = Plasma stability in human assessed as compound remaining at 2 uM measured after 120 mins by RF-MS analysis; assay type: ADME, cell-free; conditions: read-out: Stability
[36] = Cytotoxicity against human MRC5 cells assessed as inhibition of cell growth incubated for 72 hrs by MTS assay; assay type: toxicity, cell-based
CCRF-CEM [37] = assay: Induction of apoptosis in human CCRF-CEM cells assessed as decrease in cell number at 5 times IC50 concentration incubated for 24 to 74 hrs by annexin V FITC/propidium iodide staining based flow cytometry; assay type: functional; conditions: time 24-74 hrs

Q: Which results are given for `C=C(C)[C@@H]1CC[C@]2(C(=O)O)CC[C@]3(C)[C@H](CC[C@@H]4[C@@]5(C)CC=C(c6ccc(O)cc6)C(C)(C)[C@@H]5CC[C@]43C)[C@@H]12`?
A: remaining at 0.25 h, 2 µM [1]: 96.7%; Activity (CCRF-CEM [2]): 3.4%; Activity (CCRF-CEM [3]): Active; IC50 (CEM-DNR): 3.3 µM; remaining at 1 h, 2 µM [4]: 86.8%; remaining at 0.5 h, 2 µM [5]: 88.1%; Activity (CCRF-CEM [6]): Active; Activity (CCRF-CEM [7]): Active; IC50 (A549): 6.2 µM; IC50 (CCRF-CEM [8]): 0.69 µM; remaining at 0.25 h, 2 µM [9]: 93.9%; IC50 at 72 h [10]: 31 µM; remaining at 0.5 h, 2 µM [11]: 98.7%; Activity (CCRF-CEM [12]): 3.9%; recovery at 2 h [13]: 65.2%; Activity (CCRF-CEM [14]): 95%; Papp A→B at 2 h [15]: 1.69 ×10⁻⁶ cm/s; IC50 [16]: 6.4 µM; IC50 [17]: 3.3 µM; Activity (CCRF-CEM [18]): 1.6%; remaining at 1 h, 2 µM [19]: 94%; remaining at 2 h, 2 µM [20]: 89.6%; Papp A→B at 1 h [21]: 4.27 ×10⁻⁶ cm/s; recovery at 1 h [22]: 55.9%; Activity (CCRF-CEM [23]): 94.2%; Activity (CCRF-CEM [24]): Active; Activity (CCRF-CEM [25]): inactive; Activity (CCRF-CEM [26]): inactive; IC50 (K562): 6.2 µM; remaining at 0.25 h, 2 µM [27]: 98.9%; Activity (CCRF-CEM [28]): Active; remaining at 1 h, 2 µM [29]: 92.9%; fraction unbound at 4 h, 10 µM [30]: 0.242; remaining at 0.5 h, 2 µM [31]: 93.2%; IC50 (U2OS): 11 µM; efflux ratio at 1 h [32]: 2.05; Activity (CCRF-CEM [33]): 1.9%; IC50 (HCT-116): 7.4 µM; efflux ratio at 2 h [34]: 1.47; remaining at 2 h, 2 µM [35]: 74.4%; IC50 at 72 h [36]: 27 µM; Activity (CCRF-CEM [37]): Active
